The text below walks through data of PMC4613240, “A Series of New Ligustrazine-Triterpenes Derivatives as Anti-Tumor Agents: Design, Synthesis, and Biological Evaluation” (International Journal of Molecular Sciences, 2015).

Structures are written as SMILES. A value given as a limit tells only on which side of the number the result lay.

Usually IC50 stands for the midpoint of a concentration-inhibition curve. A higher IC50 goes with weaker potency. The inhibition is the drop in the measured response relative to a control, in per cent.

The subject of assay [1] is HepG2 cells. Briefly: Morphological observation using DAPI staining. It counts as cell-based, human. The note with it: HepG2, 2, 4, 8 μM for 72 h. As to the method: DAPI staining was used to evaluate apoptosis associated morphological changes in this assay. HepG2 cells were seeded in the six well plates at a density of 4 × 10^3 cells/well and incubated overnight. Then the cells were incubated in the presence of 4a at various concentrations (2, 4, 8 μΜ) at 37 °C and 5% CO2 for 72 h. Cells were then washed with PBS, fixed with 4% paraformaldehyde followed by 70% ethanol. Finally, fixed cells were stained with DAPI (DAPI, Molecular Probes/Invitrogen Life Technologies, Carlsbad, CA, USA) at the concentration of 1 mg/mL and incubated for 1 min in dark. The cell morphological changes were observed by fluorescent microscopy and images were captured by digital camera.

In assay [2] the test system is HepG2 cells. Description: Intracellular free Ca2+ detection (Fluo-3AM, flow cytometry). It counts as cell-based, human. The note with it: 72 h, control MFI 4773. The method, then: A sustained increase in intracellular Ca^2+ concentrations is recognized as a factor for cell death or injury. The level of intracellular free Ca^2+ is examined by the fluorescent dye Fluo-3AM. The Fluo-3 AM is converted to Fluo-3 upon deacetylation within the cells, and Fluo-3 increases green fluorescence upon Ca^2+ binding. […] As the concentration of 4a increased from 5.0 to 6.0 to 7.0 μM, intracellular free Ca^2+ fluorescence increased dramatically (from 4800 to 5612 to 6955). It was in accordance with the tendencies of mitochondrial membrane potential and cell apoptosis.
The level of intracellular free Ca^2+ was examined by the fluorescent dye Fluo-3AM. HepG2 cells (1 × 10^5 cells/mL) in logarithmic growth phase were cultured in 6-well plates for 24 h at 37 °C in incubator with 5% CO2. After exposed to different concentrations of 4a (5, 6, 7 μM) for 72 h, cells were harvested and washed twice with cold PBS, then resuspended in HBSS buffer with 10 μM Fluo-3AM (Fluo-3AM, Shanghai Beyotime Biotech. Co., Ltd., Shanghai, China), and incubated for 30 min at 37 °C in the dark. Detection of intracellular Ca^2+ was carried out by the Flow Cytometer at 488 nm excitation wavelength.

The subject of assay [3] is HepG2 (human hepatocellular carcinoma). Briefly: MTT cytotoxicity assay, HepG2. The note with it: for IC50: 72 h, maximal tested concentration 20.0 μM. Type of assay: cell-based. The method, then:
(§1) The cytotoxicity of ligustrazine-triterpenes derivatives was evaluated on five tumor cell lines (Bel-7402, HepG2, HT-29, Hela, and MCF-7) using the standard MTT assay. In the study, the antineoplastic drug cisplatin (DDP) was selected as the positive control. The MDCK cell line was used to test the toxicity of the ligustrazine-triterpenes derivatives and DDP.
(§2) The cell lines Bel-7402 (human hepatocellular carcinoma), HepG2 (human hepatocellular carcinoma), HT-29 (human colon carcinoma), Hela (human cervical cancer), MCF-7 (human breast cancer) were included in this study. All these cell lines were provided by the Chinese Academy of Medical Sciences & Peking Union Medical College. Cultures were maintained as monolayers in RPMI 1640 supplemented with 10% (v/v) heat inactivated fetal bovine serum and 1% (v/v) enicillin/streptomycin (Thermo Technologies, New York, NY, USA) at 37 °C in a humidified atmosphere with 5% CO2. The ligustrazine derivatives under study were dissolved in DMSO (Sigma, St. Louis, MO, USA) and added at required concentrations to the cell culture. Cells incubated without the preparations served as the control.
(§3) The cytotoxicity of the compounds was evaluated on five cancer cell lines (Bel-7402, HepG2, HT-29, Hela, MCF-7) by the standard MTT assay. In short, exponentially growing cells were seeded into 96-well plates at a density 10^4 cells/mL. The plates were incubated at 37 °C in a humidified 5% CO2 atmosphere. Cells were allowed to adhere to the surface for 24 h and then treated with serial dilutions of the compounds for 72 h. Later, aliquots of [3-(4,5-dimethylthiazol-2-yl)-2,5-diphenyltetrazolium bromide] (MTT) solution (20 μL, 5 mg/mL) were added to each well and the incubation was continued for an additional 4 h. Then the supernatant medium was thrown away. The dark blue formazan crystals formed within the healthy cells were solubilized with DMSO (150 μL) and the absorbance was measured in a plate reader (BIORAD 550 spectrophotometer, Bio-rad Life Science Development Ltd., Beijing, China) at 490 nm. Wells containing no drugs were used as control group. The IC50 values were defined as the concentration of compounds that produced a 50% reduction of surviving cells and calculated using Logit-method. Tumor cell growth inhibitory rate was calculated in the following Equation (1): % inhibition = (1 − Sample group OD/Control group OD) × 100% (1)
In general terms: Tetrazolium assays rely on reduction of a dye to a coloured formazan, in cell work by metabolically active cells.

The test system of assay [4] is HT-29 (human colon carcinoma). Description: MTT cytotoxicity assay, HT-29. It counts as cell-based. The note with it: maximal tested concentration 20.0 μM. The method, then: as §1, §2, §3

In the case of `C=C(C)[C@@H]1CC[C@]2(C(=O)OCc3nc(C)c(C)nc3C)CC[C@]3(C)C(CCC4[C@@]5(C)CC[C@H](O)C(C)(C)C5CC[C@]43C)C12` (stereo partly drawn) [Compound 4a, 3β-Hydroxy-lup-20(29)-ene-28-oic acid-3,5,6-trimethylpyrazin-2-methyl ester], in the assay with HepG2 cells [1], the “cell morphology after DAPI staining” value is recorded as “displayed morphological features of apoptosis”. In addition, the “intracellular free Ca2+ fluorescence (MFI), Fluo-3AM” value with HepG2 cells [2] (HepG2, 5 μM) is reported as 4800; in the assay with HepG2 cells [2] (HepG2, 6 μM), 5612; in the assay with HepG2 cells [2] (HepG2, 7 μM), 6955. Further, the half-inhibitory concentration (IC50) in assay [3] was 4.48 µM; in assay [3] (Homo sapiens, HepG2, 72 h) it was < 5.23 µM; in assay [4] (72 h) it was 5.23 µM; in assay [4] (Homo sapiens, HT-29, 72 h), < 5.23 µM. In assay [3] (Homo sapiens, HepG2, 10 μM, read-out: inhibition rate against HepG2), the inhibition at 10 µM was determined as 99.9%.
